In US8158088B2, “Extractant compositions for co-extracting cesium and strontium, a method of separating cesium and strontium from an aqueous feed, and calixarene compounds” (Battelle Energy Alliance, LLC, priority 2008, dated 2012):
“And” between values parts separate entries of the source, which are not always exact repeats. Identical values can stand only once.

What was measured:
Format in all cases: physicochemical
[1] = Cesium distribution ratio (DCs), equilibrium batch contact of mixed extractant solvent with nitric acid feed; settings: for DCs: 1.5 HNO3
Source text: The distribution of cesium and strontium between the first organic phase (the mixed extractant solvent including the dialkyloxycalix[4]arenebenzocrown-6 compound) and the first aqueous phase (aqueous feed) may be determined by conventional techniques. The distribution ratio for strontium (“DSr”) may be calculated as the ratio of organic phase activity to the aqueous phase activity at equilibrium. High values for the DSr indicate that the strontium is present predominantly in the organic phase while low values for the DSr indicate that the strontium is present predominantly in the aqueous phase. Similarly, the distribution ratio for cesium (“DCs”) may be calculated as the ratio of organic phase activity to the aqueous phase activity at equilibrium. High values for the DCs indicate that the cesium is present predominantly in the organic phase while low values for the DCs indicate that the cesium is present predominantly in the aqueous phase.
Distribution ratios (DM=[M]org/[M]aq) were measured by equilibrium batch contacts between the organic and aqueous phases at an organic-to-aqueous phase ratio (O/A) of unity (O/A=1). All distribution ratio measurements were conducted in a temperature controlled water bath at 25±1° C. The aqueous phase was of the appropriate HNO3 concentration, to which trace quantities (typically, less than 10^−7 M each) of the major radionuclides of interest (^137Cs, ^85Sr, ^154Eu, or ^241Am) were added. The organic and aqueous phases were contacted by vortex mixing for 1 minute. All batch contact experiments were performed at ambient temperature (from approximately 20° C. to approximately 25° C.) unless otherwise noted. Following extraction, the samples were centrifuged for 1 minute and the organic and aqueous phases separated by pipet or centrifugation. The distribution ratios (DSr, or DCs) were calculated as the ratio of the appropriate specific activities in the organic and aqueous phases as determined by γ-ray counting (gamma spectroscopy). The counting time was selected to provide less than approximately 1% statistical uncertainty.
(MC-8, MC-8B, MC-10, MC-10B, MC-12, or MC-12B), 0.075 M DtBuCH18C6, 0.75 M Cs-7SB modifier, and 0.003 M TOA in ISOPAR® L were evaluated for their respective abilities to simultaneously extract cesium and strontium from the aqueous feed simulant composition described in Table 2. The cesium and strontium distribution ratios of the mixed extraction solvents were compared to those of the FPEX I process solvent. The cesium extraction performance and strontium extraction performance of each of the mixed extractant solvents was determined using the batch contact flowsheet presented in FIG. 1, where “E1,” “E2,” and “E3” refer to three forward extraction acts: a first extraction act, a second extraction act, and a third extraction act, respectively, and “St1” and “St2” refer to two backward extraction acts: a first strip act and a second strip act, respectively. […] The aqueous feed 2 and the mixed extractant solvent 4 were combined in a vessel 6 to conduct the extraction. Two phases were formed during the extraction: the first organic phase and the first aqueous phase, with the cesium and strontium substantially distributed in the first organic phase.
The cesium and strontium distribution ratios for the mixed extractant solvents 4 were calculated for the first organic phase and are reported in Tables 3 and 4, respectively, as E1, along with the cesium and strontium distribution ratios for the FPEX I process solvent. The cesium and strontium were stripped from the first (and subsequent) organic phase to recover these radionuclides. For the strips or backward extractions, the first (and subsequent) organic phase was contacted with dilute acidic solution 8, which was 0.01 M HNO3. […]

[2] = Strontium distribution ratio (DSr), equilibrium batch contact of mixed extractant solvent with nitric acid feed; settings: for DSr: 1.5 HNO3
[3] = Solvent stability: cesium distribution ratios as a function of contact time with 1.5 M HNO3
Procedure: (§1) The stability of the mixed extractant solvents prepared using dialkyloxycalix[4]arenebenzocrown-6 compounds (MC-8, MC-8B, MC-10, MC-10B, MC-12, or MC-12B) relative to BOBCalixC6 in the FPEX I process solvent was determined. Samples were prepared using each of the dialkyloxycalix[4]arenebenzocrown-6 compounds and contacted with 1.5 M HNO3. The samples included 0.007 M of the respective dialkyloxycalix[4]arenebenzo-crown-6 compound (MC-8, MC-8B, MC-10, MC-10B, MC-12, or MC-12B), 0.075 M DtBuCH18C6, 0.75 M Cs-7SB modifier, and 0.003 M TOA in ISOPAR® L. The stability of the dialkyloxycalix[4]arene-benzocrown-6 based solvents was evaluated by measuring the cesium and strontium distribution ratios as a function of contact time. These cesium and strontium distribution ratios for the mixed extractant solvents are presented in Table 9 and Table 10, respectively, along with the cesium and strontium distribution ratios for the FPEX I process solvent. The symbol “-” is used in Tables 9 and 10 to indicate no data was collected.
(§2) This degradation is likely due to chemical attack or nitration of the BOBCalixC6 in the FPEX I process solvent. […] However, it is difficult to compare the relative extents of degradation. In order to compare the different extractants, the distribution ratio data presented in Tables 9 and 10 were normalized to the values obtained at t=0 days contact. The normalized cesium and strontium distribution ratios for the FPEX I process solvent and the mixed extractant solvents as a function of contact time are presented in FIGS. 2 and 3, respectively.

[4] = Solvent stability: strontium distribution ratios as a function of contact time with 1.5 M HNO3
Procedure: as §1, §2

[5] = Third phase formation on contact with nitric acid
[6] = [DtBuCH18C6]/[MC-10B] 50/10 mM, 1.5 M Cs-5SB
[7] = [DtBuCH18C6]/[MC-10B] 60/10 mM, 1.5 M Cs-5SB
[8] = [DtBuCH18C6]/[MC-10B] 60/15 mM, 1.5 M Cs-5SB
[9] = [DtBuCH18C6]/[MC-10B] 90/20 mM, 1.5 M Cs-5SB in ISOPAR L, feed 0.004 M cesium nitrate, 0.002 M strontium nitrate
[10] = first forward extraction, 1.5 M HNO3 feed simulant, 25 °C, 0.007 M calixarene, 0.075 M DtBuCH18C6, 0.75 M Cs-7SB, 0.003 M TOA in ISOPAR L
[11] = first strip with 0.01 M HNO3, 35 °C, 0.007 M calixarene solvent
[12] = second forward extraction, 1.5 M HNO3 feed, 25 °C, 0.007 M calixarene solvent
[13] = second strip with 0.01 M HNO3, 35 °C, 0.007 M calixarene solvent
[14] = third forward extraction, 1.5 M HNO3 feed, 25 °C, 0.007 M calixarene solvent
[15] = contact time 0 days with 1.5 M HNO3, 0.007 M calixarene, 0.075 M DtBuCH18C6, 0.75 M Cs-7SB, 0.003 M TOA in ISOPAR L
[16] = contact time 34 days with 1.5 M HNO3
[17] = contact time 70 days with 1.5 M HNO3
[18] = contact time 278 days with 1.5 M HNO3

- Cesium distribution ratio as a function of contact time [3, 15]: 3.7
- Cesium distribution ratio as a function of contact time [3, 16]: 3.0
- Cesium distribution ratio as a function of contact time [3, 17]: 3.4
- Cesium distribution ratio as a function of contact time [3, 18]: 2.8
- Strontium distribution ratio as a function of contact time [4, 15]: 9.6
- Strontium distribution ratio as a function of contact time [4, 16]: 8.5
- Strontium distribution ratio as a function of contact time [4, 17]: 9.5
- Strontium distribution ratio as a function of contact time [4, 18]: 8.0
- third phase formation ([5]; varying MC-10B and DtBuCH18C6 concentrations, 1.5 M Cs-5SB in ISOPAR L, 1.5 HNO3): No third phase formation was observed
Structure (SMILES): CC(C)CCCC(C)CCOc1c2cccc1Cc1cccc3c1OCCOCCOc1ccccc1OCCOCCOc1c(cccc1Cc1cccc(c1OCCC(C)CCCC(C)C)C3)C2 (stereo not shown) [MC-10B, 1,3-alternate-25,27-di(3,7-dimethyloctyl-1-oxy)calix[4]arenebenzocrown-6]
- DCs [1, 6]: 2.87 and 2.88
- DCs [1, 7]: 2.77 and 2.81
- DCs [1, 8]: 4.48 and 4.37
- DCs [1, 9]: 6.11 and 6.36
- Cesium distribution ratio, contact E1 [1, 10]: 3.7
- Cesium distribution ratio, contact St1 [1, 11]: 0.5
- Cesium distribution ratio, contact E2 [1, 12]: 1.9
- Cesium distribution ratio, contact St2 [1, 13]: 0.2
- Cesium distribution ratio, contact E3 [1, 14]: 1.5
- DSr [2, 6]: 4.03 and 4.11
- DSr [2, 7]: 4.83 and 4.90
- DSr [2, 8]: 4.73 and 4.69
- DSr [2, 9]: 6.90 and 6.94
- Strontium distribution ratio, contact E1 [2, 10]: 9.6
- Strontium distribution ratio, contact St1 [2, 11]: 0.06
- Strontium distribution ratio, contact E2 [2, 12]: 8.6
- Strontium distribution ratio, contact St2 [2, 13]: 0.01
- Strontium distribution ratio, contact E3 [2, 14]: 8.3
- third phase formation ([5]; up to 2 M HNO3, 0.007 M MC-10B, 0.075 M DtBuCH18C6, 0.75 M Cs-7SB in ISOPAR L): no formation of third phases was detected
